Test system: yeast genes (level of expressed mRNA)
Test: DNA chip analysis of expressed mRNA of yeast genes after 2 h culture with a toxic chemical substance
Format: cell-based, Saccharomyces cerevisiae S288C
In short: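 Values are treated-to-control fluorescence ratios from a whole-yeast-genome DNA chip (65° C, over 12 h hybridization) using Cy3/Cy5-labelled cDNA from mRNA. Log-phase S288C cells in YPD at 25° C were exposed 2 h to a toxicant at sublethal, growth-inhibiting concentration.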

Substance: γ-hexachlorocyclohexane [(7)]
- The level of expressed mRNA in the presence of chemical substance/ (yeast gene YFL010C, ratio to control without chemical substance, 2 h culture): 1.5
- The level of expressed mRNA in the presence of chemical substance/ (yeast gene YFL024C, ratio to control without chemical substance, 2 h culture): 3.3
- The level of expressed mRNA in the presence of chemical substance/The level of expressed mRNA in the absence of chemical substance (yeast gene YFL028C): 2.0
- The level of expressed mRNA in the presence of chemical substance/ (yeast gene YFL032W, ratio to control without chemical substance, 2 h culture): 1.1
- The level of expressed mRNA in the presence of chemical substance/The level of expressed mRNA in the absence of chemical substance (yeast gene YFL043C): 1.8
- The level of expressed mRNA in the presence of chemical substance/in the absence of chemical substance (yeast gene YGL035C): 1.2
- The level of expressed mRNA in the presence of chemical substance/ (yeast gene YGL037C, ratio to control without chemical substance, 2 h culture): 2.9
- The level of expressed mRNA in the presence of chemical substance/ (yeast gene YGL047W, ratio to control without chemical substance, 2 h culture): 1.7
- The level of expressed mRNA in the presence of chemical substance/ (yeast gene YGL053W, ratio to control without chemical substance, 2 h culture): 3.7
- The level of expressed mRNA in the presence of chemical substance/ (yeast gene YGL121C, ratio to control without chemical substance, 2 h culture): 4.7
- The level of expressed mRNA in the presence of chemical substance/The level of expressed mRNA in the absence of chemical substance (yeast gene YGL158W): 1.3
- The level of expressed mRNA in the presence of chemical substance/ (yeast gene YGL199C, ratio to control without chemical substance, 2 h culture): 1.3
- The level of expressed mRNA in the presence of chemical substance/The level of expressed mRNA in the absence of chemical substance (yeast gene YGL229C): 2.2
- The level of expressed mRNA in the presence of chemical substance/ (yeast gene YGR101W, ratio to control without chemical substance, 2 h culture): 1.5
- The level of expressed mRNA in the presence of chemical substance/ (yeast gene YGR110W, ratio to control without chemical substance, 2 h culture): 1.7
- The level of expressed mRNA in the presence of chemical substance/ (yeast gene YGR130C, ratio to control without chemical substance, 2 h culture): 1.3
- The level of expressed mRNA in the presence of chemical substance/The level of expressed mRNA in the absence of chemical substance (yeast gene YGR136W): 1.5
- The level of expressed mRNA in the presence of chemical substance/ (yeast gene YGR154C, ratio to control without chemical substance, 2 h culture): 2.0
- The level of expressed mRNA in the presence of chemical substance/The level of expressed mRNA in the absence of chemical substance (yeast gene YGR189C): 0.6
- The level of expressed mRNA in the presence of chemical substance/The level of expressed mRNA in the absence of chemical substance (yeast gene YGR213C): 7.0
- The level of expressed mRNA in the presence of chemical substance/ (yeast gene YGR221C, ratio to control without chemical substance, 2 h culture): 1.2
- The level of expressed mRNA in the presence of chemical substance/The level of expressed mRNA in the absence of chemical substance (yeast gene YGR257C): 2.4
- The level of expressed mRNA in the presence of chemical substance/in the absence of chemical substance (yeast gene YGR287C): 2.2
- The level of expressed mRNA in the presence of chemical substance/The level of expressed mRNA in the absence of chemical substance (yeast gene YHR004C): 1.5
- The level of expressed mRNA in the presence of chemical substance/The level of expressed mRNA in the absence of chemical substance (yeast gene YHR071W): 1.0
- The level of expressed mRNA in the presence of chemical substance/ (yeast gene YHR138C, ratio to control without chemical substance, 2 h culture): 3.0
- The level of expressed mRNA in the presence of chemical substance/The level of expressed mRNA in the absence of chemical substance (yeast gene YHR139C): 1.5
- The level of expressed mRNA in the presence of chemical substance/The level of expressed mRNA in the absence of chemical substance (yeast gene YHR142W): 0.9
- The level of expressed mRNA in the presence of chemical substance/ (yeast gene YHR199C, ratio to control without chemical substance, 2 h culture): 1.1
- The level of expressed mRNA in the presence of chemical substance/ (yeast gene YIL023C, ratio to control without chemical): 1.2
- The level of expressed mRNA in the presence of chemical substance/ (yeast gene YIL041W, ratio to control without chemical substance, 2 h culture): 0.8
- The level of expressed mRNA in the presence of chemical substance/ (yeast gene YIL087C, ratio to control without chemical substance, 2 h culture): 1.8
- The level of expressed mRNA in the presence of chemical substance/The level of expressed mRNA in the absence of chemical substance (yeast gene YIL123W): 0.5
- The level of expressed mRNA in the presence of chemical substance/The level of expressed mRNA in the absence of chemical substance (yeast gene YIL140W): 0.5
- The level of expressed mRNA in the presence of chemical substance/ (yeast gene YJL057C, ratio to control without chemical substance, 2 h culture): 2.7
- The level of expressed mRNA in the presence of chemical substance/ (yeast gene YJL066C, ratio to control without chemical substance, 2 h culture): 1.6
- The level of expressed mRNA in the presence of chemical substance/in the absence of chemical substance (yeast gene YJL070C): 1.4
- The level of expressed mRNA in the presence of chemical substance/ (yeast gene YJL082W, ratio to control without chemical substance, 2 h culture): 0.4
- The level of expressed mRNA in the presence of chemical substance/The level of expressed mRNA in the absence of chemical substance (yeast gene YJL089W): 1.1
- The level of expressed mRNA in the presence of chemical substance/The level of expressed mRNA in the absence of chemical substance (yeast gene YJL116C): 0.8
- The level of expressed mRNA in the presence of chemical substance/ (yeast gene YJL151C, ratio to control without chemical substance, 2 h culture): 1.4
- The level of expressed mRNA in the presence of chemical substance/ (yeast gene YJL152W, ratio to control without chemical substance, 2 h culture): 1.2
- The level of expressed mRNA in the presence of chemical substance/ (yeast gene YJL161W, ratio to control without chemical substance, 2 h culture): 3.6
- The level of expressed mRNA in the presence of chemical substance/in the absence of chemical substance (yeast gene YJL167W): 1.5
- The level of expressed mRNA in the presence of chemical substance/ (yeast gene YJL171C, ratio to control without chemical substance, 2 h culture): 1.4
- The level of expressed mRNA in the presence of chemical substance/in the absence of chemical substance (yeast gene YJL216C): 1.5
- The level of expressed mRNA in the presence of chemical substance/The level of expressed mRNA in the absence of chemical substance (yeast gene YJR004C): 0.4
- The level of expressed mRNA in the presence of chemical substance/ (yeast gene YJR008W, ratio to control without chemical substance, 2 h culture): 2.9
- The level of expressed mRNA in the presence of chemical substance/ (yeast gene YJR054W, ratio to control without chemical): 0.9
- The level of expressed mRNA in the presence of chemical substance/The level of expressed mRNA in the absence of chemical substance (yeast gene YJR086W): 1.7
- The level of expressed mRNA in the presence of chemical substance/The level of expressed mRNA in the absence of chemical substance (yeast gene YKL008C): 1.4
- The level of expressed mRNA in the presence of chemical substance/The level of expressed mRNA in the absence of chemical substance (yeast gene YKL013C): 1.8
- The level of expressed mRNA in the presence of chemical substance/The level of expressed mRNA in the absence of chemical substance (yeast gene YKL039W): 2.0
- The level of expressed mRNA in the presence of chemical substance/The level of expressed mRNA in the absence of chemical substance (yeast gene YKL041W): 1.0
- The level of expressed mRNA in the presence of chemical substance/ (yeast gene YKL071W, ratio to control without chemical substance, 2 h culture): 3.7
- The level of expressed mRNA in the presence of chemical substance/ (yeast gene YKL086W, ratio to control without chemical): 0.7
